Laboratory results: patent US20250064789A1, “KETOAMIDE DERIVATIVES AND PHARMACEUTICAL USES THEREOF” (priority 2022, published 2025)
Where two headings read alike, the source gives them in different places.

Experiments:
SARS-CoV-1 = assay type: cell-based
[1] = target: hERG potassium ion channels (Homo sapiens (Human), UniProt Q12809); assay: hERG potassium current, whole cell patch clamp in HEK-293-hERG cells; conditions: 30 μM
in vivo [2] = assay type: in vivo, ICR mice; conditions: for MRT inf: read-out: MRTINF—obs
in vivo [3] = assay type: in vivo, beagle dogs; conditions: for MRT inf: read-out: MRTINF—obs
Experimental: Male ICR mice (6-8 weeks old, weighing 16-25 g), male beagle dogs (1-2 years old, weighing 9-12 kg), or male cynomolgus monkeys (6-7 years old, weighing 6-8 kg) were randomly divided into groups, with three animals for each group, and a series of test compounds were administered orally (p.o.) or intravenously (i.v.) according to the protocol in following Table 10.
The solution for gavage and intravenous administration was prepared with DMSO/HS15/PEG400/NaCl (5/3/40/52, […]). The administration time was recorded, and for each sample, approximately 0.20 mL of blood was collected by jugular vein blood collection or other appropriate methods at the pre-determined time points. The blood sample was anticoagulated with heparin sodium, and after collection, the blood was placed on ice. The sample was centrifuged to separate the plasma within 1 h (centrifugation conditions: 6800 g, 6 min, 2-8° C.). Plasma samples were stored in a −80° C. freezer before analysis. The grouping and blood collection time points are shown in Table 4, with 3 animals at each time point.

MERS-CoV = assay type: cell-based
human cathepsin B = human cathepsin B (Homo sapiens (Human), UniProt P07858); assay: Human protease biochemical activity assay: Cathepsin B inhibitor screening kit
Experimental: (§1) The biochemical activity of compounds against human proteases was determined using Cathepsin K inhibitor screening kit (K150-100), Cathepsin B inhibitor screening kit (K147-100), Thrombin activity testing kit (K373-100), Caspase-2 inhibitor screening kit (K152-100), and Cathepsin D inhibitor screening kit (K148-100) according to the instructions of the kits (Biovision, USA). All experiments were carried out in triplicate. All experimental data were analyzed using GraphPad Prism software.

in vivo [4] = conditions: male, Sprague-Dawley, rat
[5] = Metabolic stability using human liver microsomes; assay type: in vitro ADME; conditions: pH 7.4, NADPH, 37° C., read-out: Human liver microsomes T1/2
human caspase 2 = human caspase 2 (Homo sapiens (Human), UniProt P42575); assay: Human protease biochemical activity assay: Caspase-2 inhibitor screening kit
Chain of human caspase 2 (P42575 170-325): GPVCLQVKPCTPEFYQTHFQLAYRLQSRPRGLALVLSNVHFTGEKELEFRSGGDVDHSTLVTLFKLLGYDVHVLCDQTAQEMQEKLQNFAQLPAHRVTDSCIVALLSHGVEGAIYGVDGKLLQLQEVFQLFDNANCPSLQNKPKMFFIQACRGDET
Chain of human caspase 2 (P42575 348-452): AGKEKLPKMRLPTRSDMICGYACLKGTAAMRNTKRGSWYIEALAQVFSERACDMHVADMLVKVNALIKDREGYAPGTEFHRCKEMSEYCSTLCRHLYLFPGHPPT
Experimental: as §1

human cathepsin K = human cathepsin K (Homo sapiens (Human), UniProt P43235); assay: Human protease biochemical activity assay: Cathepsin K inhibitor screening kit
Chain of human cathepsin K (P43235 115-329): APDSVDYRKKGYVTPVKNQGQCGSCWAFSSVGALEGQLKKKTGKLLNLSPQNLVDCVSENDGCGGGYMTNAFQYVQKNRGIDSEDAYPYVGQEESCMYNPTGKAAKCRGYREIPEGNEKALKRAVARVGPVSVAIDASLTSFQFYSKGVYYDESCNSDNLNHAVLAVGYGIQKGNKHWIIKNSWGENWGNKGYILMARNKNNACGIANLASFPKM
Experimental: as §1

[6] = system: SARS-CoV-2 Omicron (B.1.1.529) BA.2; assay: Antiviral activity by plaque method in Vero E6-TMPRSS2 cells: SARS-CoV-2 Omicron BA.2; assay type: cell-based
human thrombin = human thrombin (Homo sapiens (Human), UniProt P00734); assay: Human protease biochemical activity assay: Thrombin activity testing kit
Experimental: as §1

[7] = system: SARS-CoV-2 Omicron (B.1.1.529) BA.2; set-up: species or system K18-hACE2 transgenic mice; conditions: mouse, in vivo
human cathepsin D = human cathepsin D (Homo sapiens (Human), UniProt P07339); assay: Human protease biochemical activity assay: Cathepsin D inhibitor screening kit
Chain of human cathepsin D (P07339 65-412): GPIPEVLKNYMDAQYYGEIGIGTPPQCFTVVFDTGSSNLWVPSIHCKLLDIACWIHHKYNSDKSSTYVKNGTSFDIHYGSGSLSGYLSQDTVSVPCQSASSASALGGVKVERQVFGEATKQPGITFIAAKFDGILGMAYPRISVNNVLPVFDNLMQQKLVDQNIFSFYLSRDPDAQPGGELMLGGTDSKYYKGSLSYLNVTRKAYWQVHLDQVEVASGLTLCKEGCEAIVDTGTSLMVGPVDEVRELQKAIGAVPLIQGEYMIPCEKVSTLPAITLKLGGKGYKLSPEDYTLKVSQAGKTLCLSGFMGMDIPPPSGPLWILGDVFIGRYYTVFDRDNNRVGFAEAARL
Experimental: as §1

[8] = Preliminary evaluation of in vivo safety (acute and general toxicity test); conditions: p.o.; 1000 mg/kg single-dose; 800, 600, 400 mg/kg twice a day for 14 consecutive days
in vivo [9] = assay type: in vivo, cynomolgus monkeys; conditions: for MRT inf: read-out: MRTINF—obs
[10] = system: SARS-CoV-2 Omicron (B.1.1.529) BA.5; assay: Antiviral activity by plaque method in Vero E6-TMPRSS2 cells: SARS-CoV-2 Omicron BA.5; assay type: cell-based
[11] = male, mouse, in vivo, iv, ICR mice, i.v. 1 mg/kg
[12] = male, dog, in vivo, po, beagle dogs, p.o. 10 mg/kg
[13] = male, cynomolgus monkey, in vivo, iv, cynomolgus monkeys, i.v. 1 mg/kg

Chain of hERG potassium ion channels (Q12809 whole entry, looked up): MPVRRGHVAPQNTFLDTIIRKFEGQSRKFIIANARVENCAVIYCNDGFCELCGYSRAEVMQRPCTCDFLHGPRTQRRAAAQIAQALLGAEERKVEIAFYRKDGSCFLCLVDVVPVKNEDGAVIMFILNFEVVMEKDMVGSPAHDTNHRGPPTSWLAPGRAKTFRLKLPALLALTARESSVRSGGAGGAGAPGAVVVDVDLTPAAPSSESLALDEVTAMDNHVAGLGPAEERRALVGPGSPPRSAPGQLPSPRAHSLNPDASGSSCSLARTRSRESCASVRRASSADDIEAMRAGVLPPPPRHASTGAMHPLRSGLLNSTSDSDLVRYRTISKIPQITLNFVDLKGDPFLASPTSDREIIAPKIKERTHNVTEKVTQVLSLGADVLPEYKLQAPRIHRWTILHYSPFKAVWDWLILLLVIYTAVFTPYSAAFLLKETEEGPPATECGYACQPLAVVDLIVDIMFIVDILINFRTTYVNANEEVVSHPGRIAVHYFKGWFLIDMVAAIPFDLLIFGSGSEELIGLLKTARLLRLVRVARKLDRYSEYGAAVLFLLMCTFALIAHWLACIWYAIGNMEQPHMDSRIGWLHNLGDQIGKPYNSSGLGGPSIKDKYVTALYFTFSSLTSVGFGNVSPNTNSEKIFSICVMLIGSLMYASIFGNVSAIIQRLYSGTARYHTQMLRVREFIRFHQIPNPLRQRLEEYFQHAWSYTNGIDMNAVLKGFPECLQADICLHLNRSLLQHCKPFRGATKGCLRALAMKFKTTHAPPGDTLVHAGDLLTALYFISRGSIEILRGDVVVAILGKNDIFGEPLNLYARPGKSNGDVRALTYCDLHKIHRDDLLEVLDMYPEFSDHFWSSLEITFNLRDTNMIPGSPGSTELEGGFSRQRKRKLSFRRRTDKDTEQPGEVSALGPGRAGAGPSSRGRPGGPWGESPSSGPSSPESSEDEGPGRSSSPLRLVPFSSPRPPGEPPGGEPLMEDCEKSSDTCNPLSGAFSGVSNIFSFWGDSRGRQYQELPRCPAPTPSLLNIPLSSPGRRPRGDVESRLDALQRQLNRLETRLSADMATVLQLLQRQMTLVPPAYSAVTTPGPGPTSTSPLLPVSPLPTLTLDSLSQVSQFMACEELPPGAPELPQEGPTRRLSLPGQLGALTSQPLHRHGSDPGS

## COC[C@@H](NC(=O)C1CCCC(F)(F)C1)C(=O)N[C@H](Cc1ccccc1)C(=O)C(=O)NCc1nccs1 (stereo partly drawn) [Compound 398, N—((R)-1-(((R)-3,4-dioxo-1-phenyl-4-((thiazole-2-ylmethyl)amino)butan-2-yl)amino)-3-methoxy-1-oxopropan-2-yl)-3,3-difluorocyclohexane-1-formamide]
SARS-CoV-1
  anti-viral activity, times higher than Nirmatrelvir (PF-07321332): 17.14 times
[1]
  The average inhibition rate on hERG current: 1.28%
In vivo [2]; i.v. 1 mg/kg, p.o. 150 mg/kg
  pharmacokinetic properties in mice (in words): good pharmacokinetic properties
In vivo [2]; [11]
  Tmax: 4.8 min
  MRT inf: 10.2 ± 1.8 min
In vivo [2]; male, mouse, in vivo, po, ICR mice, p.o. 150 mg/kg
  MRT inf: 217 ± 70.8 min
In vivo [3]; beagle dogs, i.v. 1 mg/kg
  Vssobs: 1.41964 ± 0.16026 L/kg
In vivo [3]; i.v. 1 mg/kg, p.o. 10 mg/kg
  pharmacokinetic properties in beagle dogs (in words): good pharmacokinetic properties
In vivo [3]; male, dog, in vivo, iv, beagle dogs, i.v. 1 mg/kg
  MRT inf: 28.2 ± 3 min
In vivo [3]; [12]
  Tmax: 60 min
  MRT inf: 128 ± 10.8 min
MERS-CoV
  anti-viral activity, times higher than Nirmatrelvir (PF-07321332): 1.79 times
Human cathepsin B
  IC50: > 100 µM
In vivo [4]; iv, 1 mg/kg
  MRT inf: 140 ± 13.2 min
  Tmax: 4.8 min
In vivo [4]; po, 10 mg/kg
  MRT inf: 396 ± 53.4 min
  Tmax: 240 ± 120 min
[5]
  half-life at 1 µM: 35.3 min
Human caspase 2
  IC50: > 100 µM
Human cathepsin K
  IC50: > 100 µM
[6]
  anti-viral activity, times higher than Nirmatrelvir (PF-07321332): 2.82 times
Human thrombin
  IC50: > 100 µM
[7]
  infectious viral load in the lungs by plaque assay (in words): effectively inhibited the production of infectious viral particles in the lungs
  inhibition of viral subgenome mRNA (sgRNA) in the lungs: 337 times
  lung histopathology, H&E staining (in words): scattered inflammatory cell infiltration was occasionally observed
  reduction of sgRNA copies in the lungs: 12 times
  reduction of sgRNA copy in the lungs compared with mice treated with Nirmatrelvir: four times
  reduction of vRNA copies in the lungs: 16 times
  reduction of vRNA copy in the lungs compared with mice treated with Nirmatrelvir: four times
  reduction of viral genomic RNA (vRNA) in the lungs: 179 times
Human cathepsin D
  IC50: > 100 µM
[8]
  body weight and general condition during the administration period: 1. During the administration period, no abnormal body
In vivo [9]; cynomolgus monkeys, i.v. 1 mg/kg
  Vssobs: 2.0658 ± 0.37439 L/kg
In vivo [9]; i.v. 1 mg/kg, p.o. 10 mg/kg
  pharmacokinetic properties in cynomolgus monkeys (in words): good pharmacokinetic properties
In vivo [9]; [13]
  Tmax: 4.8 min
  clearance: 2000 ± 257 mL/min/kg
  MRT inf: 54 ± 10.8 min
In vivo [9]; male, cynomolgus monkey, in vivo, po, cynomolgus monkeys, p.o. 10 mg/kg
  MRT inf: 283 ± 53.4 min
[10]
  anti-viral activity, times higher than Nirmatrelvir (PF-07321332): 4.00 times
